{
  "source": "patent US11759520B1",
  "about": "“Theranostics for protein misfolding diseases” (UNM Rainforest Innovations, priority 2018, dated 2023)",
  "key": {"Aβ40 fibrils [1]": {"molecular_target": "T1, Aβ40 fibrils (Homo sapiens, UniProt P05067)", "T1 construct": "mixed with Aβ40 fibrils (5 μM) incubated in Tris pH 8.0 (A) or PB pH 7.4 (B)", "T1 sequence (P05067 672-711 limits assumed)": "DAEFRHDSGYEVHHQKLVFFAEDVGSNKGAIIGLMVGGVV", "assay": "Effect of oxidation on Aβ40 fibril morphology and secondary structure (TEM, CD)", "format": "biochemical", "details": "irradiated with photosensitizer"}, "Aβ40 monomers": {"molecular_target": "Aβ40 monomers (Homo sapiens, UniProt P05067)", "sequence (P05067 672-711 limits assumed)": "as above", "assay": "Photo-oxidation of Aβ40 monomers (DNPH dot blot, RP-HPLC, MS, amino acid analysis)", "format": "biochemical", "details": "4 hour irradiation", "description": "To evaluate the potency of OPE to selectively photo-oxidize Aβ40 fibrils over the monomeric counterpart, the oxidation state of both Aβ40 fibrils and monomers were characterized and were compared to MB. The carbonyl content of the protein was monitored by DNPH dot blot, which increases as a result of histidine photooxidation.^20\nDNPH dot blot was carried out on Aβ40 fibrils and monomers incubated in the dark or under irradiation between 0 to 6 hours (FIGS. 9A and 9B). […] Slightly higher carbonyl content in Aβ fibrils at time 0 h in the presence of MB could be due to short light exposure during sample preparation causing MB to photosensitize the oxidation of Aβ fibrils.\nTo confirm this observation, Aβ40 monomers were analyzed by reverse phase HPLC (RP-HPLC), mass spectrometry (MS), and amino acid analysis (FIGS. 10A and B), before and after irradiation in the presence of OPE1− and MB."}, "Aβ40 fibrils [2]": {"molecular_target": "T1, Aβ40 fibrils", "assay": "Fluorescence sensing of Aβ40 fibrils over monomers (ADF, LOD)", "format": "binding", "details": "5 to 1 protein to sensor molar ratio", "description": "Quantitative assessment of OPE sensor performance towards A1340 fibrils at a 5 to 1 protein to sensor molar ratio was analyzed by calculating an amyloid detector factor using the equation shown in FIG. 13, where F(dye-in-buffer), F(dye+fibrils) and F(dye+monomers) are the integrated emission intensities for sensor alone, sensor in the presence of fibrils, and sensor in the presence of monomers, respectively. Using this equation, positive ADF values indicate selective sensing of fibrils over monomers, while negative ADF values indicate selective sensing of monomers. ADF values close to zero indicate no selective sensing."}, "α-synuclein": {"tested_on": "α-synuclein", "assay": "Excitation and emission spectra with α-synuclein isoforms", "format": "binding", "details": "6 days of incubation"}, "Aβ40 fibrils [3]": {"molecular_target": "T1, Aβ40 fibrils", "assay": "Fluorescence sensing of Aβ40 fibrils over monomers (ADF, LOD)", "format": "binding"}, "Aβ42 peptide": {"molecular_target": "T2, Aβ42 peptide (Homo sapiens, UniProt P05067)", "T2 construct": "in the presence of unincubated (oligomeric) and incubated (fibrillar) Aβ42 peptide (5 μM)", "T2 sequence (P05067 672-713 limits assumed)": "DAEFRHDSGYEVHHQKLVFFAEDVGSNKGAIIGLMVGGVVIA", "assay": "Fluorescence spectra with unincubated (oligomeric) and incubated (fibrillar) Aβ42 peptide", "format": "binding", "details": "ThT 20 μM, OPE 1 μM, Aβ42 5 μM"}, "[4]": {"details": "Aβ40 fibrils produced in pH 7.4 PB"}, "[5]": {"details": "Aβ40 fibrils produced in pH 8.0 Tris"}},
  "data": [
    {"molecule": "CN(C)c1ccc2nc3ccc(=[N+](C)C)cc-3sc2c1", "note": "[MB, methylene blue, reference compound]", "values": [
      {"measurement": "Aβ40 fibril morphology after irradiation (TEM)", "setting": "Aβ40 fibrils [1]", "value": "fibrils dissociated and broke into shorter structures"},
      {"measurement": "changes of Aβ40 monomers after irradiation", "setting": "Aβ40 monomers", "value": "become more hydrophilic, present higher m/z ratio, and have a lower histidine content"}
    ]},
    {"molecule": "Cc1ccc2c(c1)sc(-c1ccc(N(C)C)cc1)[n+]2C.[Cl-]", "note": "[ThT, thioflavin T, reference compound]", "values": [
      {"measurement": "ADF (Amyloid Detection Factor), Aβ40 in PB", "setting": "Aβ40 fibrils [2]; [4]", "value": "0.23 +/− 0.03"},
      {"measurement": "ADF (Amyloid Detection Factor), Aβ40 in Tris", "setting": "Aβ40 fibrils [2]; [5]", "value": "0.53 +/− 0.1"},
      {"measurement": "detection of prefibrillar α-synuclein aggregates", "setting": "α-synuclein", "value": "only able to detect A53T aggregates after 6 days of incubation"},
      {"measurement": "LOD (Limit of Detection), Aβ40 in PB", "setting": "Aβ40 fibrils [3]; [4]", "value": "0.69 ± 0.05", "unit": "µM"},
      {"measurement": "LOD (Limit of Detection), Aβ40 in Tris", "setting": "Aβ40 fibrils [3]; [5]", "value": "0.65 ± 0.05", "unit": "µM"},
      {"measurement": "fluorescence increase with fibrillar (incubated) Aβ42", "setting": "Aβ42 peptide", "value": "large fluorescence increases"},
      {"measurement": "fluorescence increase with oligomeric (unincubated, prefibrillar) Aβ42", "setting": "Aβ42 peptide", "value": "small fluorescence increases"}
    ]}
  ]
}
